# In patent US10787452B2 (Vertex Pharmaceuticals Incorporated, priority 2012, dated 2020):
# Test system: HCT116 colorectal cancer cells
# Assay: Cisplatin sensitization assay (96 h cell viability MTS);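 also: compound concentration needed to lower the Cisplatin-alone IC50 by a set fold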
# Type: cell-based
# Conditions: 96 h MTS, compound plus Cisplatin
# Procedure, shortened: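 Test compound and cisplatin were added together as a full matrix of 2-fold serial dilutions, each from a top final concentration of 10 μM. Cells were incubated 96 h at 37° C in 5% CO2, then viability was read by MTS after a further 1 h incubation.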
row,Compound,Cisplatin Sensitization Assay
1,"CN(C)Cc1ccc(Oc2ccncc2NC(=O)c2c(N)nn3cc(F)cnc23)cn1 [I-O-3, 2-amino-N-(4-((6-((dimethylamino)methyl)pyridin-3-yl)oxy)pyridin-3-yl)-6-fluoropyrazolo[1,5-a]pyrimidine-3-carboxamide]",++ (Compounds with a Cisplatin sensitization value >0.02 μM but <0.2 μM are marked with “++.”)
2,"COc1ccncc1NC(=O)c1c(N)nn2cc(F)cnc12 [I-O-4, 2-amino-6-fluoro-N-(4-methoxypyridin-3-yl)pyrazolo[1,5-a]pyrimidine-3-carboxamide]",++ (Compounds with a Cisplatin sensitization value >0.02 μM but <0.2 μM are marked with “++.”)
3,"Nc1nn2cc(F)cnc2c1C(=O)Nc1cnccc1O[C@H]1CN2CCC1CC2 [I-O-5, (R)-2-amino-6-fluoro-N-(4-(quinuclidin-3-yloxy)pyridin-3-yl)pyrazolo[1,5-a]pyrimidine-3-carboxamide]",+++ (Compounds with a Cisplatin sensitization value of <0.02 μM are marked with “+++.”)
4,"Nc1nn2cc(F)cnc2c1C(=O)Nc1cnccc1Oc1cccnc1 [I-O-7, 2-amino-6-fluoro-N-(4-(pyridin-3-yloxy)pyridin-3-yl)pyrazolo[1,5-a]pyrimidine-3-carboxamide]",++ (Compounds with a Cisplatin sensitization value >0.02 μM but <0.2 μM are marked with “++.”)
5,"Nc1nn2cc(F)cnc2c1C(=O)Nc1cnccc1OC1CCC(C(=O)O)CC1 (stereo not shown) [I-O-8, 4-((3-(2-amino-6-fluoropyrazolo[1,5-a]pyrimidine-3-carboxamido)pyridin-4-yl)oxy)cyclohexanecarboxylic acid]",+ (Compounds with a Cisplatin sensitization value >0.2 μM but <5 μM are marked with “+.”)
6,"Nc1nn2cc(F)cnc2c1C(=O)Nc1cnccc1O[C@H]1CCCN(C2COC2)C1 [I-O-9, (S)-2-amino-6-fluoro-N-(4-((1-(oxetan-3-yl)piperidin-3-yl)oxy)pyridin-3-yl)pyrazolo[1,5-a]pyrimidine-3-carboxamide]",++ (Compounds with a Cisplatin sensitization value >0.02 μM but <0.2 μM are marked with “++.”)
7,"Nc1nn2cc(F)cnc2c1C(=O)Nc1cnccc1O[C@@H]1CN2CCC1CC2 [I-O-10, (S)-2-amino-6-fluoro-N-(4-(quinuclidin-3-yloxy)pyridin-3-yl)pyrazolo[1,5-a]pyrimidine-3-carboxamide]",+++ (Compounds with a Cisplatin sensitization value of <0.02 μM are marked with “+++.”)
8,"Nc1nn2cc(F)cnc2c1C(=O)Nc1cnccc1OC1CCN(C2COC2)CC1 [I-O-11, 2-amino-6-fluoro-N-(4-((1-(oxetan-3-yl)piperidin-4-yl)oxy)pyridin-3-yl)pyrazolo[1,5-a]pyrimidine-3-carboxamide]",+++ (Compounds with a Cisplatin sensitization value of <0.02 μM are marked with “+++.”)
9,"CN1CCC(Oc2ccncc2NC(=O)c2c(N)nn3cc(F)cnc23)CC1 [I-O-12, 2-amino-6-fluoro-N-(4-((1-methylpiperidin-4-yl)oxy)pyridin-3-yl)pyrazolo[1,5-a]pyrimidine-3-carboxamide]",+++ (Compounds with a Cisplatin sensitization value of <0.02 μM are marked with “+++.”)
10,"COC(=O)[C@H]1CC[C@H](Oc2ccncc2NC(=O)c2c(N)nn3cc(F)cnc23)CC1 [I-O-13, (1r,4r)-methyl 4-((3-(2-amino-6-fluoropyrazolo[1,5-a]pyrimidine-3-carboxamido)pyridin-4-yl)oxy)cyclohexanecarboxylate]",+++ (Compounds with a Cisplatin sensitization value of <0.02 μM are marked with “+++.”)
11,"CCOc1ccncc1NC(=O)c1c(N)nn2cc(F)cnc12 [I-O-14, 2-amino-N-(4-ethoxypyridin-3-yl)-6-fluoropyrazolo[1,5-a]pyrimidine-3-carboxamide]",+++ (Compounds with a Cisplatin sensitization value of <0.02 μM are marked with “+++.”)
12,"Nc1nn2cc(F)cnc2c1C(=O)Nc1cnccc1O[C@H]1Cc2nccn2C1 [I-O-16, (S)-2-amino-N-(4-((6,7-dihydro-5H-pyrrolo[1,2-a]imidazol-6-yl)oxy)pyridin-3-yl)-6-fluoropyrazolo[1,5-a]pyrimidine-3-carboxamide]",+++ (Compounds with a Cisplatin sensitization value of <0.02 μM are marked with “+++.”)
13,"CN(C)C(=O)[C@H]1CC[C@@H](Oc2ccncc2NC(=O)c2c(N)nn3cc(F)cnc23)CC1 [I-O-17, 2-amino-N-(4-(((1s,4s)-4-(dimethylcarbamoyl)cyclohexyl)oxy)pyridin-3-yl)-6-fluoropyrazolo[1,5-a]pyrimidine-3-carboxamide]",+++ (Compounds with a Cisplatin sensitization value of <0.02 μM are marked with “+++.”)
14,CN1CCN(C(=O)[C@H]2CC[C@@H](Oc3ccncc3NC(=O)c3c(N)nn4cc(F)cnc34)CC2)CC1 [I-O-19],+++ (Compounds with a Cisplatin sensitization value of <0.02 μM are marked with “+++.”)
15,"CCC(C#N)c1cnc2c(C(=O)Nc3cnccc3OC)c(N)nn2c1 (stereo not shown) [I-O-20, 2-amino-6-(1-cyanopropyl)-N-(4-methoxypyridin-3-yl)pyrazolo[1,5-a]pyrimidine-3-carboxamide]",++ (Compounds with a Cisplatin sensitization value >0.02 μM but <0.2 μM are marked with “++.”)
16,"COc1ccncc1NC(=O)c1c(N)nn2cc(C(C)C#N)cnc12 (stereo not shown) [I-O-21, 2-amino-6-(1-cyanoethyl)-N-(4-methoxypyridin-3-yl)pyrazolo[1,5-a]pyrimidine-3-carboxamide]",++ (Compounds with a Cisplatin sensitization value >0.02 μM but <0.2 μM are marked with “++.”)
17,"CN1CCC(Oc2ccncc2NC(=O)c2c(N)nn3cc(CC#N)cnc23)CC1 [I-O-23, 2-amino-6-(cyanomethyl)-N-(4-((1-methylpiperidin-4-yl)oxy)pyridin-3-yl)pyrazolo[1,5-a]pyrimidine-3-carboxamide]",+++ (Compounds with a Cisplatin sensitization value of <0.02 μM are marked with “+++.”)
18,"CN(C)CCOc1ccncc1NC(=O)c1c(N)nn2cc(CC#N)cnc12 [I-O-24, 2-amino-6-(cyanomethyl)-N-(4-(2-(dimethylamino)ethoxy)pyridin-3-yl)pyrazolo[1,5-a]pyrimidine-3-carboxamide]",++ (Compounds with a Cisplatin sensitization value >0.02 μM but <0.2 μM are marked with “++.”)
19,"N#CCc1cnc2c(C(=O)Nc3cnccc3Oc3ccccc3)c(N)nn2c1 [I-O-25, 2-amino-6-(cyanomethyl)-N-(4-phenoxypyridin-3-yl)pyrazolo[1,5-a]pyrimidine-3-carboxamide]",+++ (Compounds with a Cisplatin sensitization value of <0.02 μM are marked with “+++.”)
20,"COc1ccncc1NC(=O)c1c(N)nn2cc(CC#N)cnc12 [I-O-26, 2-amino-6-(cyanomethyl)-N-(4-methoxypyridin-3-yl)pyrazolo[1,5-a]pyrimidine-3-carboxamide]",++ (Compounds with a Cisplatin sensitization value >0.02 μM but <0.2 μM are marked with “++.”)
21,"COc1cc(Cl)ncc1NC(=O)c1c(N)nn2cc(CC#N)cnc12 [I-O-27, 2-amino-N-(6-chloro-4-methoxypyridin-3-yl)-6-(cyanomethyl)pyrazolo[1,5-a]pyrimidine-3-carboxamide]",++ (Compounds with a Cisplatin sensitization value >0.02 μM but <0.2 μM are marked with “++.”)
22,"CCOc1ccncc1NC(=O)c1c(N)nn2cc(CC#N)cnc12 [I-O-28, 2-amino-6-(cyanomethyl)-N-(4-ethoxypyridin-3-yl)pyrazolo[1,5-a]pyrimidine-3-carboxamide]",+++ (Compounds with a Cisplatin sensitization value of <0.02 μM are marked with “+++.”)
23,"COCCOc1ccncc1NC(=O)c1c(N)nn2cc(CC#N)cnc12 [I-O-29, 2-amino-6-(cyanomethyl)-N-(4-(2-methoxyethoxy)pyridin-3-yl)pyrazolo[1,5-a]pyrimidine-3-carboxamide]",+++ (Compounds with a Cisplatin sensitization value of <0.02 μM are marked with “+++.”)
24,"N#CCc1cnc2c(C(=O)Nc3cnccc3OC3CCOCC3)c(N)nn2c1 [I-O-30, 2-amino-6-(cyanomethyl)-N-(4-((tetrahydro-2H-pyran-4-yl)oxy)pyridin-3-yl)pyrazolo[1,5-a]pyrimidine-3-carboxamide]",+++ (Compounds with a Cisplatin sensitization value of <0.02 μM are marked with “+++.”)
25,"N#CCc1cnc2c(C(=O)Nc3cnccc3OCC3CC3)c(N)nn2c1 [I-O-32, 2-amino-6-(cyanomethyl)-N-(4-(cyclopropylmethoxy)pyridin-3-yl)pyrazolo[1,5-a]pyrimidine-3-carboxamide]",+++ (Compounds with a Cisplatin sensitization value of <0.02 μM are marked with “+++.”)
26,"N#CCc1cnc2c(C(=O)Nc3cnccc3OCCO)c(N)nn2c1 [I-O-33, 2-amino-6-(cyanomethyl)-N-(4-(2-hydroxyethoxy)pyridin-3-yl)pyrazolo[1,5-a]pyrimidine-3-carboxamide]",++ (Compounds with a Cisplatin sensitization value >0.02 μM but <0.2 μM are marked with “++.”)
27,"N#CCc1cnc2c(C(=O)Nc3cnccc3OCC(F)(F)F)c(N)nn2c1 [I-O-34, 2-amino-6-(cyanomethyl)-N-(4-(2,2,2-trifluoroethoxy)pyridin-3-yl)pyrazolo[1,5-a]pyrimidine-3-carboxamide]",++ (Compounds with a Cisplatin sensitization value >0.02 μM but <0.2 μM are marked with “++.”)
28,"CC(C)Oc1ccncc1NC(=O)c1c(N)nn2cc(CC#N)cnc12 [I-O-35, 2-amino-6-(cyanomethyl)-N-(4-isopropoxypyridin-3-yl)pyrazolo[1,5-a]pyrimidine-3-carboxamide]",+++ (Compounds with a Cisplatin sensitization value of <0.02 μM are marked with “+++.”)
